Results taken from patent publication US11046699B2, “Pyrazolo-pyrimidin-amino-cycloalkyl compounds and their therapeutic uses” (RAPT THERAPEUTICS, INC., priority 2018, dated 2021).
Like-named read-outs stand apart in the source and are kept apart here.

Molecular target: GCN2 (Homo sapiens, UniProt Q9P2K8)
Assay: GCN2 enzymatic endpoint assay: phosphorylation of GFP-eIF2α measured by TR-FRET (Lanthascreen)
Assay type: biochemical
Outline: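 Endpoint kinase reaction with 2 μM ATP and 80 nM GFP-labelled eIF2α substrate, run at room temperature for 90 min, then stopped with EDTA. Phospho-substrate detected by terbium-antibody TR-FRET, activity taken as the 520/495 nm emission ratio.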

[1] = tested as described in Example 77, compound and/or hydrochloride, dihydrochloride or trifluoroacetic acid salt, read-out: IC 50 Activity

Chain of GCN2 (Q9P2K8 whole entry): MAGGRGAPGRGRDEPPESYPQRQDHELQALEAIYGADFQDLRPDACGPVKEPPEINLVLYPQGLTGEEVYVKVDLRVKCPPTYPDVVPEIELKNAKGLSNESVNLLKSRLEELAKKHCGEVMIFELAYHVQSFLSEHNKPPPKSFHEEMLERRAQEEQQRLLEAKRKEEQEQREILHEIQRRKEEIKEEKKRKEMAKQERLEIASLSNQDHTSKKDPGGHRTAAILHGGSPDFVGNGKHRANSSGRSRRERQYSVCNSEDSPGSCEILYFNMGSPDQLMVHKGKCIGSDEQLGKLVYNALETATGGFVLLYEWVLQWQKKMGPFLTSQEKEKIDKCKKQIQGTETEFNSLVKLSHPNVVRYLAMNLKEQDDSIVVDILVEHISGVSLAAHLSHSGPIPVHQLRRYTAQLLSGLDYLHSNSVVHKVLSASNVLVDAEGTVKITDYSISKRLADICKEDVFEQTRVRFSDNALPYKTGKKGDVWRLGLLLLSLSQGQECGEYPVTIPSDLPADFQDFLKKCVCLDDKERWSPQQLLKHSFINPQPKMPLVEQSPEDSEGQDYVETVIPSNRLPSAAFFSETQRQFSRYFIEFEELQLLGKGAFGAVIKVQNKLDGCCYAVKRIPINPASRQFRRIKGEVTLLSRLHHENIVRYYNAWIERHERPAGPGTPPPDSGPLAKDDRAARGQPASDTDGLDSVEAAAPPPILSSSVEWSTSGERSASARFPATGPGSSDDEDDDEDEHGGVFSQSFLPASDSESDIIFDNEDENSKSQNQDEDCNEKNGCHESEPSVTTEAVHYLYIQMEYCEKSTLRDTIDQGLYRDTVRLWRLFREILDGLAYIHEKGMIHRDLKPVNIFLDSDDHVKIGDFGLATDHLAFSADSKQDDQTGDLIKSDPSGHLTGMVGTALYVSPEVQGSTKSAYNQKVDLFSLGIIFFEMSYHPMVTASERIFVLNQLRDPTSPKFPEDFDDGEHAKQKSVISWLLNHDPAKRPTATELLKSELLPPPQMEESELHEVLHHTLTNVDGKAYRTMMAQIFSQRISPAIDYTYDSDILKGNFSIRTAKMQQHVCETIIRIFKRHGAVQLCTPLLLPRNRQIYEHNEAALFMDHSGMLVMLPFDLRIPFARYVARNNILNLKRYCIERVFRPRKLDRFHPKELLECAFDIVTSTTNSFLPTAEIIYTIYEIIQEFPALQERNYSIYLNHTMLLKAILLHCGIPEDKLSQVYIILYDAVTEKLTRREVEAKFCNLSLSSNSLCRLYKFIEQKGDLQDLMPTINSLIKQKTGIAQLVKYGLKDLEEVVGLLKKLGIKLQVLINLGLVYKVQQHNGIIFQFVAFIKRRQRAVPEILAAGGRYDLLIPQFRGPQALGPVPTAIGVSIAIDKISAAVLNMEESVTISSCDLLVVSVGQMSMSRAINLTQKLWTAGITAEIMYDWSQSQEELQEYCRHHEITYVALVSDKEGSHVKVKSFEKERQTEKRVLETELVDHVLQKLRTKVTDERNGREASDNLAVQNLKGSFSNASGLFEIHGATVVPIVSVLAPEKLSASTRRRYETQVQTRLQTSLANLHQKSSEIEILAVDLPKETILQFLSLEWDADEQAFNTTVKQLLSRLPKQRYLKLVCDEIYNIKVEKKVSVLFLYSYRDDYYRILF

| Structure (SMILES) | IC50 [1] | IC50 (GCN2 biochemical IC50, 4 nM GCN2, 2 μM ATP, 80 nM GFP-eIF2α, 90 min RT, read-out: GCN2 activity) |
| --- | --- | --- |
| CNC(=O)[C@]1(C)CC[C@@H](Nc2ncc3c(Br)nn(-c4cc(F)cc(CC#N)c4)c3n2)C1 [(1R,3R)-3-[[3-bromo-1-[3-(cyanomethyl)-5-fluoro-phenyl]pyrazolo[3,4-d]pyrimidin-6-yl]amino]-N,1-dimethyl-cyclopentane-carboxamide] | 25 to 200 nM |  |
| CNC(=O)[C@]1(C)CC[C@@H](Nc2ncc3c(Br)nn(-c4ccc5nccnc5c4)c3n2)C1 (single isomer, unassigned) [Example 11] |  | 25 to 200 nM |
| CNC(=O)[C@]1(C)CC[C@@H](Nc2ncc3c(Br)nn(-c4cc(Cl)cc(C(CN)OC)c4)c3n2)C1 (stereo partly drawn) [(1R,3R)-3-[[1-[3-(2-amino-1-methoxy-ethyl)-5-chloro-phenyl]-3-bromo-pyrazolo[3,4-d]pyrimidin-6-yl]amino]-N,1-dimethyl-cyclopentanecarboxamide; 2,2,2-trifluoroacetic acid] | 25 to 200 nM |  |
| CNS(=O)(=O)C1CC[C@@H](Nc2ncc3c(Br)nn(-c4ccc(-c5nnc(C)s5)c(CCC#N)c4)c3n2)C1 (stereo partly drawn) [(3R)-3-[[3-bromo-1-[3-(2-cyanoethyl)-4-(5-methyl-1,3,4-thiadiazol-2-yl)phenyl]pyrazolo[3,4-d]pyrimidin-6-yl]amino]-N-methyl-cyclopentanesulfonamide] | 25 to 200 nM |  |
| CC(=O)OCC(=O)N1CCN(C(=O)[C@@H]2CC[C@@H](Nc3ncc4c(Br)nn(-c5cc(C#N)c6ncccc6c5)c4n3)C2)CC1 [2-(4-((1R,3R)-3-((3-bromo-1-(8-cyanoquinolin-6-yl)-1H-pyrazolo[3,4-d]pyrimidin-6-yl)amino)cyclopentane-1-carbonyl)piperazin-1-yl)-2-oxoethyl acetate] | < 25 nM |  |
| CCCCNC(=O)[C@@H]1CC[C@@H](Nc2ncc3c(Br)nn(-c4cc(C#N)c5ncccc5c4)c3n2)C1 [(1R,3R)-3-((3-bromo-1-(8-cyanoquinolin-6-yl)-1H-pyrazolo[3,4-d]pyrimidin-6-yl)amino)-N-butylcyclopentane-1-carboxamide] | 200 to 500 nM |  |
| O=C(NCCc1cnc[nH]1)[C@@H]1CC[C@@H](Nc2ncc3c(Br)nn(-c4cc(F)c5ncccc5c4)c3n2)C1 [(1R,3R)-N-(2-(1H-imidazol-5-yl)ethyl)-3-((3-bromo-1-(8-fluoroquinolin-6-yl)-1H-pyrazolo [3,4-d]pyrimidin-6-yl)amino)cyclopentane-1-carboxamide] | 25 to 200 nM |  |
| CNC(=O)[C@]1(OC)CC[C@@H](Nc2ncc3c(Br)nn(-c4cc(F)c5ncccc5c4)c3n2)C1 [(1S,3R)-3-[[3-bromo-1-(8-fluoro-6-quinolyl)pyrazolo[3,4-d]pyrimidin-6-yl]amino]-1-methoxy-N-methyl-cyclopentanecarboxamide] | 25 to 200 nM |  |
| Cc1ccc2cc(-n3nc(Br)c4cnc(N[C@@H]5CC[C@@H](P(C)(C)=O)C5)nc43)cc(F)c2n1 [3-bromo-N-[(1R,3R)-3-dimethylphosphoryl-cyclopentyl]-1-(8-fluoro-2-methyl-6-quinolyl) pyrazolo[3,4-d]pyrimidin-6-amine] | 25 to 200 nM |  |

Results, then the compound that gave them:

| IC50 [1] | IC50 (GCN2 biochemical IC50, 4 nM GCN2, 2 μM ATP, 80 nM GFP-eIF2α, 90 min RT, read-out: GCN2 activity) | Structure (SMILES) |
| --- | --- | --- |
| 25 to 200 nM |  | CNC(=O)[C@@H]1CC[C@@H](Nc2ncc3c(Br)nn(-c4cc(F)c5nc(C)c(F)cc5c4)c3n2)C1 [(1R,3R)-3-((3-bromo-1-(3,8-difluoro-2-methyl-quinolin-6-yl)-1H-pyrazolo[3,4-d]pyrimidin-6-yl)amino)-N-methylcyclopentane-1-carboxamide] |
| 25 to 200 nM |  | CN(CC(N)=O)C(=O)[C@@H]1CC[C@@H](Nc2ncc3c(Br)nn(-c4cc(F)c5ncccc5c4)c3n2)C1 [(1R,3R)-N-(2-amino-2-oxoethyl)-3-((3-bromo-1-(8-fluoroquinolin-6-yl)-1H-pyrazolo[3,4-d]pyrimidin-6-yl)amino)-N-methylcyclopentane-1-carboxamide] |
| 25 to 200 nM |  | CNC(=O)[C@]1(C)CC[C@@H](Nc2ncc3c(Br)nn(-c4ccc(-c5cnccn5)nc4)c3n2)C1 [(1R,3R)-3-[[3-bromo-1-(6-pyrazin-2-yl-3-pyridyl)pyrazolo[3,4-d]pyrimidin-6-yl]amino]-N,1-dimethyl-cyclopentane-carboxamide] |
| 25 to 200 nM |  | O=C(N[C@H]1CC[C@@](O)(C(F)(F)F)CC1)[C@@H]1CC[C@@H](Nc2ncc3c(Br)nn(-c4ccc5ncccc5c4)c3n2)C1 |
